In US7244730B2, “2-iminopyrrolidine derivatives” (Eisai Co., Ltd, priority 2001, dated 2007):
Counter-ions that a name gives are not always drawn.

Legend:
thrombin receptor = target: T1, thrombin receptor (Homo sapiens, UniProt P25116); assay: Receptor binding assay ([3H] high affinity TRAP, platelet membrane); settings: platelet membrane of healthy adult; 25 nM [3H] high affinity TRAP; 37° C., 1 hour; read-out: RBA IC50
T1 construct: centrifuged at 40,000 g for 60 minutes to yield platelet membrane; from tissue; host or cells: platelet membrane prepared from donor blood (platelet rich plasma)
T1 sequence (P25116 22-425): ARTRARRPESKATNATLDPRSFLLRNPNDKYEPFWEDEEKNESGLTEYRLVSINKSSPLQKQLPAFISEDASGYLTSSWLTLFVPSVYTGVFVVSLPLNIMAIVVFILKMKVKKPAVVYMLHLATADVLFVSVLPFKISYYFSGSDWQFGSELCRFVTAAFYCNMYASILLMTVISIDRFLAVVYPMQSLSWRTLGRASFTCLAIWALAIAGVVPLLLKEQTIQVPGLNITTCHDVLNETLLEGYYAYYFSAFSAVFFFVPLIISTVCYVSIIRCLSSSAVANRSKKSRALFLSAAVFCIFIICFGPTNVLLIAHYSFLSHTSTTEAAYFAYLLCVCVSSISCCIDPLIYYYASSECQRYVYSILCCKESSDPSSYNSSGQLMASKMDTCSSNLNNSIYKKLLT
Method: Blood was sampled from a healthy adult who had taken no drugs for one week, and 3.8% citric acid (a ratio of 1:9 with respect to the blood) was added as an anticoagulant. The mixture was then centrifuged at 100 g for 10 minutes at room temperature to yield platelet rich plasma (PRP). The platelet precipitate obtained by centrifuging the PRP was homogenized with a Dounce homogenizer, and then centrifuged at 40,000 g for 60 minutes to yield platelet membrane. The platelet membrane was suspended in a solution prepared by adding DMSO (dimethyl sulfoxide) at 1% concentration to Buffer 1: a 50 mM Tris-HCl buffer containing 10 mM MgCl2 and 1 mM EGTA (ethylene glycol tetraacetic acid), and the suspension was stored at −80° C. Bovine albumin and DMSO were added to Buffer 1 at 0.1% and 20%, respectively, to make preparation solutions for the test compound. The test compounds (20 μl) diluted at various concentrations with the preparation solutions were added to a 96-well multiscreen plate. […] After then adding 100 μl of the previously prepared platelet membrane suspension (0.4 mg/ml) and mixing, incubation was performed at 37° C. for 1 hour. The reaction mixture was suction filtered and then rinsed 3 times with 200 μl of Buffer 1. Next, 30 μl of liquid scintillator was added for measurement of the radioactivity of the plate using a Top Counter (Packard), the value of the radioactivity in the presence of the test compound minus non-specific binding portion was divided by the specific binding value (the value of the binding in the absence of the compound minus the non-specific binding portion) to determine the binding ratio, from which the IC50 value was calculated. The non-specific binding was the value obtained with addition of 10 μM of high affinity TRAP.

[1] = system: platelet rich plasma (PRP), thrombin-induced platelet aggregation; assay: Inhibitory effects on platelet aggregation using platelet rich plasma; format: cell-based; settings: Homo sapiens, 0.1 h, PRP of healthy adult, aggregation initiated with thrombin (0.5–1.5 units/ml), area under aggregation curve, 6 minutes, read-out: Thr IC50
Method: [Inhibitory Effects on Platelet Aggregation Using Platelet Rich Plasma]
Blood was sampled from a healthy adult who had taken no drugs for one week, and 3.8% citric acid (a ratio of 1:9 with respect to the blood) was added as an anticoagulant. The mixture was then centrifuged at 100 g for 10 minutes at room temperature to yield platelet rich plasma (PRP). The PRP-removed blood was further centrifuged at 1000 g for 10 minutes to yield platelet poor plasma (PPP). The number of platelet was counted using a multi-parameter automatic hemocyte counter (K4500, Sysmex), and the PRP was diluted to approximately 300,000/μl with the PPP. The platelet aggregation activity was determined in the following manner using an Aggregometer (MC Medical). GPRP-NH2 (final concentration 1 mM, 25 μl) was added as a fibrin polymerization inhibitor to the PRP (175 μl), after which Ca-free Tyrode solution (control) or the test compound suspension (25 μl) at different concentrations was added, incubation was performed at 37° C. for 3 minutes and then 25 μl of thrombin at the minimum concentration required to produce maximum aggregation (final concentration: optimum concentration among 0.5–1.5 units/ml) was added, for initiation of platelet aggregation. PRP and Ca-free Tyrode solution (control) or the preparation solutions at various concentrations were pre-incubated at 37° C. for 60 minutes, prior to the platelet aggregation reaction in some experiments. After addition of thrombin, the aggregation reaction was examined for 6 minutes and the areas under the aggregation curves were compared to determine the inhibition ratio, from which the IC50 value was calculated.

[2] = system: Vascular smooth muscle cells (rSMC); assay: Rat smooth muscle cell proliferation assay; format: cell-based; settings: 48 h; male SD rat aorta rSMC; thrombin 0.1 unit/ml; 2 days; MTT, OD 590 nm; read-out: Rat SMC IC50
Method: [Rat Smooth Muscle Cell Proliferation Assay]
Vascular smooth muscle cells (rSMC) were isolated from male SD rat aorta by the explant method. DMEM medium (Sigma) containing 10% fetal bovine serum (GibcoBRL), streptomycin and penicillin was used as the proliferation medium, and subculture was carried out at 37° C. in the presence of 5% CO2. Culture was initiated after adding 100 μl of rSMC suspension in proliferation medium at a concentration of 1×10^4 cells/ml, to a 96-well plate. After 3 days, cells were rinsed twice with 100 μl of DMEM medium, the medium was exchanged with 100 μl of DMEM medium containing 0.1% albumin (starvation medium), and serum starvation was initiated. The medium was exchanged two days after the serum starvation, 80 μl of starvation medium and 10 μl of the test compound diluted to different concentrations with the starvation medium were added, and then 10 μl of thrombin dissolved in the starvation medium (final concentration: 0.1 unit/ml) was added prior to further incubation for 2 days.
Upon adding 20 μl of MTT (3-[4,5-dimethylthiazol-2-yl]-2,5-diphenyltetrazolium bromide) dissolved in DPBS to 7.5 mg/ml, incubation was continued for 4 hours. The medium was removed by suction, 50 μl of a 10% SDS/0.029% ammonia solution was added, and the mixture was allowed to stand for 2 hours in a CO2 incubator for complete lysis of the cells. As an index of cell proliferation, the OD 590 nm was measured using a plate reader (EL340, BIO-TEK Instruments Inc.), and the control OD value (OD value in the absence of the test compound) minus the OD value in the presence of the test compound was divided by the control OD value minus the blank OD value (OD value without thrombin stimulation) to determine the inhibition ratio, from which the IC50 value was calculated.

| Structure (SMILES) | IC50 (thrombin receptor) [nM] | IC50 [1] [nM] | IC50 [2] [nM] |
| --- | --- | --- | --- |
| CCOc1cc2c(c(F)c1OCC)C(=N)N(CC(=O)c1cc(N3CCNCC3)c(OC)c(C(C)(C)C)c1)C2 [Example 112, 1-(3-tert-Butyl-4-methoxy-5-piperazin-1-yl-phenyl)-2-(5,6-diethoxy-7-fluoro-1-imino-1,3-dihydro-isoindol-2-yl)-ethanone dihydrochloride] | 30 | 28 | 52 |
| CCOc1cc2c(c(F)c1OCC)C(=N)N(CC(=O)c1cc3c(c(C(C)(C)C)c1)OCCN3CC#N)C2 [Example 5, {8-tert-Butyl-6-[2-(5,6-diethoxy-7-fluoro-1-imino-1,3-dihydro-isoindol-2-yl)acetyl]-2,3-dihydrobenzo[1,4]oxazin-4-yl}acetonitrile hydrobromide] | 17 | 290 | 6.1 |
| CCOc1cc2c(c(F)c1OCC)C(=N)N(CC(=O)c1cc(N3CCC(=O)CC3)c(OC)c(C(C)(C)C)c1)C2 [Example 94, 1-{3-tert-Butyl-5-[2-(5,6-diethoxy-7-fluoro-1-imino-1,3-dihydro-isoindol-2-yl)-acetyl]-2-methoxy-phenyl}-piperidin-4-one hydrobromide] | 13 | 29 | 44 |
